Experimental data reported in patent US7759367B2, “Pharmaceutical compositions and their uses” (Eisai R&D Management Co., Ltd., priority 2001, dated 2010).

System: male mice of ddy strain
Experiment: Anticonvulsant action induced by AMPA (Test Example 2)
Assay type: in vivo
Settings: 25 mg/kg orally, AMPA 2 nmole/5 μl/minute/mouse into lateral ventricle 30 minutes or 1 hour after dosing
Procedure: A test compound was suspended in a 0.5% methyl cellulose solution or in sesame oil and was orally administered (25 mg/kg) to male mice of ddy strain. After 30 minutes or 1 hour from the oral administration, AMPA was continuously injected (2 nmole/5 μl/minute/mouse) into lateral ventricle to induce the convulsions. The effect was judged by a time-extending action until the convulsion takes place by a continuous injection of AMPA.

SMILES | Anticonvulsant action (time-extending action until convulsion by continuous AMPA injection)
O=c1c(-c2cccnc2Cl)cc(-c2ccccn2)cn1-c1ccccc1 [Example 4, 3-(2-Chloro-3-pyridyl)-5-(2-pyridyl)-1-phenyl-1,2-dihydropyridin-2-one] | significant anticonvulsant action
N#Cc1ccccc1-c1cc(-c2ccccc2)cn(-c2cccnc2)c1=O [Example 47, 3-(2-Cyanophenyl)-5-phenyl-1-(3-pyridyl)-1,2-dihydropyridin-2-one] | significant anticonvulsant action
O=c1c(-c2ccccc2Cl)cc(-c2ccccn2)cn1-c1ccccc1 [Example 57, 3-(2-Chlorophenyl)-5-(2-pyridyl)-1-phenyl-1,2-dihydropyridin-2-one] | significant anticonvulsant action
O=c1c(-c2ccccc2)cc(-c2ccccn2)cn1-c1ccccc1 [Example 61, 3-Phenyl-5-(2-pyridyl)-1-phenyl-1,2-dihydropyridin-2-one] | significant anticonvulsant action
COc1ccccc1-n1cc(-c2ccccn2)cc(-c2ccccc2C#N)c1=O [Example 126, 3-(2-Cyanophenyl)-5-(2-pyridyl)-1-(2-methoxyphenyl)-1,2-dihydropyridin-2-one] | significant anticonvulsant action
O=c1c(-c2ccccc2Cl)cc(-c2ccccn2)cn1-c1cccnc1 [Example 128, 3-(2-Chlorophenyl)-5-(2-pyridyl)-1-(3-pyridyl)-1,2-dihydropyridin-2-one] | significant anticonvulsant action

System: AMPA receptor;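 also: neurons cultured at least 8 to 10 days atop an astrocyte layer in 96-well plates, calcium entry read as the change in Fura2 fluorescence ratio at 340/380 nm excitation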
Experiment: not given
Settings: primary culture of rat embryo cerebral cortex nerve cells; Fura2-AM; 2 μM AMPA; 1 μM MK-801

SMILES | IC50 [µM]
N#Cc1ccccc1-c1cc(-c2ccccn2)cn(-c2cccc([N+](=O)[O-])c2)c1=O [Example 8, 3-(2-Cyanophenyl)-5-(2-pyridyl)-1-(3-nitrophenyl)-1,2-dihydropyridin-2-one] | 0.1
CS(=O)(=O)Nc1cccc(-n2cc(-c3ccccn3)cc(-c3ccccc3C#N)c2=O)c1 [Example 10, 3-(2-Cyanophenyl)-5-(2-pyridyl)-1-(3-methylsulfonylaminophenyl)-1,2-dihydropyridin-2-one] | 0.05
CNc1cccc(-n2cc(-c3ccccn3)cc(-c3ccccc3C#N)c2=O)c1 [Example 11, 3-(2-Cyanophenyl)-5-(2-pyridyl)-1-(3-methylaminophenyl)-1,2-dihydropyridin-2-one] | 0.06
COC(=O)c1cccc(-n2cc(-c3ccccn3)cc(-c3ccccc3C#N)c2=O)c1 [Example 14, 3-(2-Cyanophenyl)-5-(2-pyridyl)-1-(3-methoxycarbonylphenyl)-1,2-dihydropyridin-2-one] | 0.1
CNC(=O)c1cccc(-n2cc(-c3ccccn3)cc(-c3ccccc3C#N)c2=O)c1 [Example 15, 3-(2-Cyanophenyl)-5-(2-pyridyl)-1-(3-methylaminocarbonylphenyl)-1,2-dihydropyridin-2-one] | 0.05
N#Cc1ccccc1-c1cc(-c2ccccn2)cn(-c2cccc(C=O)c2)c1=O [Example 20, 3-(2-Cyanophenyl)-5-(2-pyridyl)-1-(3-formylphenyl)-1,2-dihydropyridin-2-one] | 0.04
N#Cc1ccccc1-c1cc(-c2ccccn2)cn(-c2cccc(CO)c2)c1=O [Example 21, 3-(2-Cyanophenyl)-5-(2-pyridyl)-1-(3-hydroxymethylphenyl)-1,2-dihydropyridin-2-one] | 0.03
N#CCc1cccc(-n2cc(-c3ccccn3)cc(-c3ccccc3C#N)c2=O)c1 [Example 22, 3-(2-Cyanophenyl)-5-(2-pyridyl)-1-(3-cyanomethylphenyl)-1,2-dihydropyridin-2-one] | 0.06
CSc1ccc(-n2cc(-c3ccccn3)cc(-c3ccccc3C#N)c2=O)cc1 [Example 26, 3-(2-Cyanophenyl)-5-(2-pyridyl)-1(4-methylthiophenyl)-1,2-dihydropyridin-2-one] | 0.02
CS(=O)(=O)c1ccc(-n2cc(-c3ccccn3)cc(-c3ccccc3C#N)c2=O)cc1 [Example 27, 3-(2-Cyanophenyl)-5-(2-pyridyl)-1-(4-methylsulfonylphenyl)-1,2-dihydropyridin-2-one] | 0.05
N#Cc1ccccc1-c1cc(-c2ccccn2)c(=O)n(-c2ccccc2)c1 [Example 33, 3-(2-Pyridyl)-5-(2-cyanophenyl)-1-phenyl-1,2-dihydropyridin-2-one] | 0.7
COc1ccc(-c2cc(-c3ccccn3)cn(-c3ccccc3)c2=O)cn1 [Example 77, 3-(2-Methoxy-5-pyridyl)-5-(2-pyridyl)-1-phenyl-1,2-dihydropyridin-2-one] | 0.02
N#Cc1cccnc1-c1cc(-c2ccccc2)cn(-c2cccnc2)c1=O [Example 79, 3-(3-Cyano-2-pyridyl)-5-phenyl-1-(3-pyridyl)-1,2-dihydropyridin-2-one] | 2.6
COc1ccc(-n2cc(-c3ccccn3)cc(-c3cccnc3F)c2=O)cn1 [Example 86, 3-(2-Fluoro-3-pyridyl)-5-(2-pyridyl)-1-(2-methoxy-5-pyridyl)-1,2-dihydropyridin-2-one] | 1.9
N#Cc1ccccc1-c1cc(-c2ccccn2)cn(-c2cccc(F)c2)c1=O [Example 92, 3-(2-Cyanophenyl)-5-(2-pyridyl)-1-(3-fluorophenyl)-1,2-dihydropyridin-2-one] | 0.05
COc1cccc(-n2cc(-c3ccccn3)cc(-c3ccccc3C#N)c2=O)c1 [Example 96, 3-(2-Cyanophenyl)-5-(2-pyridyl)-1-(3-methoxyphenyl)-1,2-dihydropyridin-2-one] | 0.06
N#Cc1ccccc1-c1cc(-c2ccccn2)cn(-c2cccc(Cl)c2)c1=O [Example 102, 3-(2-Cyanophenyl)-5-(2-pyridyl)-1-(3-chlorophenyl)-1,2-dihydropyridin-2-one] | 0.02
Cc1cccc(-n2cc(-c3ccccn3)cc(-c3ccccc3C#N)c2=O)c1 [Example 103, 3-(2-Cyanophenyl)-5-(2-pyridyl)-1-(3-tolyl)-1,2-dihydropyridin-2-one] | 0.03
N#Cc1ccccc1-c1cc(-c2ccccn2)cn(-c2ccsc2)c1=O [Example 105, 3-(2-Cyanophenyl)-5-(2-pyridyl)-1-(thiophen-3-yl)-1,2-dihydropyridin-2-one] | 0.03
N#Cc1ccccc1-c1cc(-c2ccccn2)cn(-c2ccoc2)c1=O [Example 106, 3-(2-Cyanophenyl)-5-(2-pyridyl)-1-(3-furyl)-1,2-dihydropyridin-2-one] | 0.07
Cc1ccc(-n2cc(-c3ccccn3)cc(-c3ccccc3C#N)c2=O)cc1 [Example 107, 3-(2-Cyanophenyl)-5-(2-pyridyl)-1-(4-tolyl)-1,2-dihydropyridin-2-one] | 0.07
N#Cc1ccccc1-c1cc(-c2ccccn2)cn(-c2ccc(C(F)(F)F)cc2)c1=O [Example 108, 3-(2-Cyanophenyl)-5-(2-pyridyl)-1-(4-trifluoromethylphenyl)-1,2-dihydropyridin-2-one] | 0.03
COc1ccc(-n2cc(-c3ccccn3)cc(-c3ccccc3C#N)c2=O)cn1 [Example 109, 3-(2-Cyanophenyl)-5-(2-pyridyl)-1-(2-methoxypyridin-5-yl)-1,2-dihydropyridin-2-one] | 0.01
COc1cncc(-n2cc(-c3ccccn3)cc(-c3ccccc3C#N)c2=O)c1 [Example 118, 3-(2-Cyanophenyl)-5-(2-pyridyl)-1-(3-methoxypyridin-5-yl)-1,2-dihydropyridin-2-one] | 0.1
O=c1c(-c2ccc(Cl)cc2Cl)cc(-c2ccccn2)cn1-c1cccnc1 [Example 131, 3-(2,4-Dichlorophenyl)-5-(2-pyridyl)-1-(3-pyridyl)-1,2-dihydropyridin-2-one] | 37
N#Cc1ccccc1-c1cc(-c2ccccn2)cn(-c2cccc(O)c2)c1=O [Example 315, 3-(2-Cyanophenyl)-1-(3-hydroxyphenyl)-5-(2-pyridyl)-1,2-dihydropyridin-2-one] | 0.08
O=c1c(C2C3CC4CC(C3)CC2C4)cc(-c2ccccn2)cn1-c1ccccc1 (stereo not shown) [Example 387, 3-(2-Adamantyl)-5-(2-pyridyl)-1-phenyl-1,2-dihydropyridin-2-one] | 7
CC1=NN=C(c2ccc(N)cc2)c2cc3c(cc2C1)OCO3 [GYKI 52466, reference compound] | 9.02

Same assay, conditions: suppression of AMPA-induced calcium influx into nerve cells; Table 2

SMILES | IC50 [µM]
COc1ccc(-c2cc(-c3ccccc3C#N)c(=O)n(-c3ccccc3)c2)cn1 [Example 200, 3-(2-Cyanophenyl)-5-(2-methoxypyridin-5-yl)-phenyl-1,2-dihydropyridin-2-one] | 2
N#Cc1ccccc1-c1cc(-c2ccccn2)cn(-c2ccc(N)cc2)c1=O [Example 215, 1-(4-Aminophenyl)-3-(2-cyanophenyl)-5-(2-pyridyl)-1,2-dihydropyridin-2-one] | 0.1
N#Cc1ccccc1-c1cc(-c2ccccn2)cn(-c2cccc(OCCCN3CCCCC3)c2)c1=O [Example 244, 3-(2-Cyanophenyl)-1-(3-piperidinopropoxyphenyl)-5-(2-pyridyl)-1,2-dihydropyridin-2-one] | 1.8
O=c1c(-c2cccnc2F)cc(-c2ncccn2)cn1-c1cccnc1 [Example 263, 3-(2-Fluoropyridin-3-yl)-1-(3-pyridyl)-5-(2-pyrimidinyl)-1,2-dihydropyridin-2-one] | 1
O=c1c(-c2cccc3ccccc23)cc(-c2ccccn2)cn1-c1cccnc1 [Example 279, 3-(1-Naphthyl)-5-(2-pyridyl)-1-(3-pyridyl)-1,2-dihydropyridin-2-one] | 3.71
O=c1c(-c2cc3ccccc3n2S(=O)(=O)c2ccccc2)cc(-c2ccccn2)cn1-c1ccccc1 [Example 293, 3-(1-Benzenesulfonylindol-2-yl)-1-phenyl-5-(2-pyridyl)-1,2-dihydropyridin-2-one] | 3.3
